Results published in US9981959B2, “Thiazolyl and oxazolyl urea, thiourea, guanidine and cyanoguanidine compounds as TrkA kinase inhibitors” (Array BioPharma Inc., priority 2012, dated 2018).

Experiments:
Assay in all cases: KinaseProfiler off-target kinase profiling
Type in all cases: biochemical
Details in all cases: 10 μM, ATP near Km
TEC Activated = molecular target: T1, TEC Activated (Homo sapiens, UniProt P42680)
T1 construct: purchased Millipore, Inc. (KinaseProfiler service)
In short: (§1)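 Percent of control (POC) is reported as the mean of duplicate wells, with compound at 10 μM and ATP set near the Km of each kinase.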

Rsk4 = molecular target: T2, Rsk4 (Homo sapiens, UniProt Q9UK32)
T2 construct: purchased Millipore, Inc. (KinaseProfiler service)
In short: as §1

EphB1 = molecular target: T3, EphB1 (Homo sapiens, UniProt P54762)
T3 construct: purchased Millipore, Inc. (KinaseProfiler service)
In short: as §1

p38beta = molecular target: T4, p38beta (Homo sapiens, UniProt Q15759)
T4 construct: purchased Millipore, Inc. (KinaseProfiler service)
T4 sequence (Q15759 whole entry): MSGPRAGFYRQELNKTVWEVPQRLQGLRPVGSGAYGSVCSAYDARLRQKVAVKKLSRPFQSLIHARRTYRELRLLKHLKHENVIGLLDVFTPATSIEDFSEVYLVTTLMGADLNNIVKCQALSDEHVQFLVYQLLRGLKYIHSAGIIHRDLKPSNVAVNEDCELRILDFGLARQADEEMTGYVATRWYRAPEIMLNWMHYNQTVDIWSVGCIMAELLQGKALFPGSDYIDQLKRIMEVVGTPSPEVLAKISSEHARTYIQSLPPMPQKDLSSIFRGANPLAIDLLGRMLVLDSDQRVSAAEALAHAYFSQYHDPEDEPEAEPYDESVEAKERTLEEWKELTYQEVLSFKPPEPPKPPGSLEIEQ
In short: as §1

Mer = molecular target: T5, Mer (Homo sapiens, UniProt Q12866)
T5 construct: purchased Millipore, Inc. (KinaseProfiler service)
In short: as §1

SRC = molecular target: T6, SRC (Homo sapiens, UniProt P12931)
T6 construct: purchased Millipore, Inc. (KinaseProfiler service)
T6 sequence (P12931 whole entry): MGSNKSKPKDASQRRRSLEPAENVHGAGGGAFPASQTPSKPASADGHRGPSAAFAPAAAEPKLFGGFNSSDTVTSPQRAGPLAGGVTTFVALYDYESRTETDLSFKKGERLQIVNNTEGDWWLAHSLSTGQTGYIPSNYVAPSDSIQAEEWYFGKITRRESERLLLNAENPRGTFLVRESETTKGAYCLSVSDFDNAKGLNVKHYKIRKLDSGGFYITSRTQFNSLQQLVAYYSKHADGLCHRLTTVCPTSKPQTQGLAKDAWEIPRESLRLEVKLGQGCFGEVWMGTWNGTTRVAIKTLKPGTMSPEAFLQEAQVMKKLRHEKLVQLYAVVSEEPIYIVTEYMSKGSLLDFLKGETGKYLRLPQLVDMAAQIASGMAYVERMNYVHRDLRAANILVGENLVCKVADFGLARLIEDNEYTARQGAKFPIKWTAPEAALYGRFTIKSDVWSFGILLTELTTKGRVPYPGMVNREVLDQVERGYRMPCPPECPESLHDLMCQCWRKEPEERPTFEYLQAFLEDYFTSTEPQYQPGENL
In short: as §1

Rsk3 = molecular target: T7, Rsk3 (Homo sapiens, UniProt Q15349)
T7 construct: purchased Millipore, Inc. (KinaseProfiler service)
In short: as §1

WNK2 = molecular target: T8, WNK2 (Homo sapiens, UniProt Q9Y3S1)
T8 construct: purchased Millipore, Inc. (KinaseProfiler service)
In short: as §1

BrSK2 = molecular target: T9, BrSK2 (Homo sapiens, UniProt Q8IWQ3)
T9 construct: purchased Millipore (KinaseProfiler service)
In short: as §1

SGK2 = molecular target: T10, SGK2 (Homo sapiens, UniProt Q9HBY8)
T10 construct: purchased Millipore, Inc. (KinaseProfiler service)
T10 sequence (Q9HBY8 whole entry): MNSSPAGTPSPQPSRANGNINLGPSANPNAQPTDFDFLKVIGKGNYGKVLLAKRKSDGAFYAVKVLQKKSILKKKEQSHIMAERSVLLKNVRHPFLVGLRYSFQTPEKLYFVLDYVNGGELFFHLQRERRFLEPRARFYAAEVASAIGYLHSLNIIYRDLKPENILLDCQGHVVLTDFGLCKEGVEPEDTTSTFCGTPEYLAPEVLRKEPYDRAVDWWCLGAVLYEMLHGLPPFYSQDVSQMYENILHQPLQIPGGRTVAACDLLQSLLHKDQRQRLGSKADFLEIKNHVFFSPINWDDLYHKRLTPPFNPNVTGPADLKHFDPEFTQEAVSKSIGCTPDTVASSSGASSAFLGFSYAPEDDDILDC
In short: as §1

PKCtheta = molecular target: T11, PKCtheta (Homo sapiens, UniProt Q04759)
T11 construct: purchased Millipore, Inc. (KinaseProfiler service)
In short: as §1

CAMK2g = molecular target: T12, CAMK2g (Homo sapiens, UniProt Q13555)
T12 construct: purchased Millipore (KinaseProfiler service)
In short: as §1

BTK = molecular target: T13, BTK (Homo sapiens, UniProt Q06187)
T13 construct: purchased Millipore (KinaseProfiler service)
In short: as §1

MAPKAP-K2 = molecular target: T14, MAPKAP-K2 (Homo sapiens, UniProt P49137)
T14 construct: purchased Millipore, Inc. (KinaseProfiler service)
T14 sequence (P49137 whole entry): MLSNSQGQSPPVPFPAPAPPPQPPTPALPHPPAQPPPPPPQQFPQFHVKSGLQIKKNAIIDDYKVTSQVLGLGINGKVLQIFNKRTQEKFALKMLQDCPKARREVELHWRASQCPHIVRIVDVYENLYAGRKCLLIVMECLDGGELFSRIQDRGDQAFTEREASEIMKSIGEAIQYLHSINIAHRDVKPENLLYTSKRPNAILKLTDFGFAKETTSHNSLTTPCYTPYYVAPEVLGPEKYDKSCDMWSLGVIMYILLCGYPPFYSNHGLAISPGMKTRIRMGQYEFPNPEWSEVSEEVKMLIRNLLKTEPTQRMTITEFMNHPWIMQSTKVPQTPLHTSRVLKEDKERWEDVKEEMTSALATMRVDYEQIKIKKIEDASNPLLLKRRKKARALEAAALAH
In short: as §1

PKCzeta = molecular target: T15, PKCzeta (Homo sapiens, UniProt Q05513)
T15 construct: purchased Millipore, Inc. (KinaseProfiler service)
In short: as §1

EphA3 = molecular target: T16, EphA3 (Homo sapiens, UniProt P29320)
T16 construct: purchased Millipore, Inc. (KinaseProfiler service)
In short: as §1

HIPK1 = molecular target: T17, HIPK1 (Homo sapiens, UniProt Q86Z02)
T17 construct: purchased Millipore, Inc. (KinaseProfiler service)
In short: as §1

PDK1 = molecular target: T18, PDK1 (Homo sapiens, UniProt O15530)
T18 construct: purchased Millipore, Inc. (KinaseProfiler service)
In short: as §1

CDK5/p25 = molecular target: T19, CDK5/p25 (Homo sapiens, UniProt Q00535)
T19 construct: purchased Millipore, Inc. (KinaseProfiler service)
T19 sequence (Q00535 whole entry): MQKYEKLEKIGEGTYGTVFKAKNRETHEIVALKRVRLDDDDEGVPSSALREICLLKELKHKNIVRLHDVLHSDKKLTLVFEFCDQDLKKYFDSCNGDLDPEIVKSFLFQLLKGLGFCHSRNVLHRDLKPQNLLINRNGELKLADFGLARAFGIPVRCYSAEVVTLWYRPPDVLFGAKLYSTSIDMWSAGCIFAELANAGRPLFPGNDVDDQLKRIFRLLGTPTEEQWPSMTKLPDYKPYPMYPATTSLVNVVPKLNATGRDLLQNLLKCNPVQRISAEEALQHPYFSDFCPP
T19 sequence (Q15078 99-307 partner limits assumed): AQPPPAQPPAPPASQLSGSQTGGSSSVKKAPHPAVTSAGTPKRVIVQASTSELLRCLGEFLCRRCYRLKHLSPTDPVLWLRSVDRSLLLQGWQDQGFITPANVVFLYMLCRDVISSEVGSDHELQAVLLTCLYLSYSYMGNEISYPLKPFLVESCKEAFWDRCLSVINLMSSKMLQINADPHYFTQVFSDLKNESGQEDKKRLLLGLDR
In short: as §1

Plk2 = molecular target: T20, Plk2 (Homo sapiens, UniProt Q9NYY3)
T20 construct: purchased Millipore, Inc. (KinaseProfiler service)
In short: as §1

CK1gamma2 = molecular target: T21, CK1gamma2 (Homo sapiens, UniProt P78368)
T21 construct: purchased Millipore, Inc. (KinaseProfiler service)
T21 sequence (P78368 whole entry): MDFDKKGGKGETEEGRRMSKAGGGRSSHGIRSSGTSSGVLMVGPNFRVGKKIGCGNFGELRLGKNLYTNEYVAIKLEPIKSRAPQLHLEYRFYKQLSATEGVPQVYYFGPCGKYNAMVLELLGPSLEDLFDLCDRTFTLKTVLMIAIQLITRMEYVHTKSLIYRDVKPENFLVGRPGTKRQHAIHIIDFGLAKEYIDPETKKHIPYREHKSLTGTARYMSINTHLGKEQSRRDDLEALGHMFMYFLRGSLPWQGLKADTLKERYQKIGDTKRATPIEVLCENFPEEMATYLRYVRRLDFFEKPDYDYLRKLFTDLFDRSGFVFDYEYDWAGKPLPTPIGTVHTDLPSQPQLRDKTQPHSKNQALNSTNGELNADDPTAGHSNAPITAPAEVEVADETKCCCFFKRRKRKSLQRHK
In short: as §1

NLK = molecular target: T22, NLK (Homo sapiens, UniProt Q9UBE8)
T22 construct: purchased Millipore, Inc. (KinaseProfiler service)
In short: as §1

Fes = molecular target: T23, Fes (Homo sapiens, UniProt P07332)
T23 construct: purchased Millipore, Inc. (KinaseProfiler service)
In short: as §1

Flt4 = molecular target: T24, Flt4 (Homo sapiens, UniProt P35916)
T24 construct: purchased Millipore, Inc. (KinaseProfiler service)
In short: as §1

RIPK2 = molecular target: T25, RIPK2 (Homo sapiens, UniProt O43353)
T25 construct: purchased Millipore, Inc. (KinaseProfiler service)
In short: as §1

MSK1 = molecular target: T26, MSK1 (Homo sapiens, UniProt O75582)
T26 construct: purchased Millipore, Inc. (KinaseProfiler service)
In short: as §1

EphB2 = molecular target: T27, EphB2 (Homo sapiens, UniProt P29323)
T27 construct: purchased Millipore, Inc. (KinaseProfiler service)
In short: as §1

MARK1 = molecular target: T28, MARK1 (Homo sapiens, UniProt Q9P0L2)
T28 construct: purchased Millipore, Inc. (KinaseProfiler service)
In short: as §1

p38delta = molecular target: T29, p38delta (Homo sapiens, UniProt O15264)
T29 construct: purchased Millipore, Inc. (KinaseProfiler service)
In short: as §1

NEK7 = molecular target: T30, NEK7 (Homo sapiens, UniProt Q8TDX7)
T30 construct: purchased Millipore, Inc. (KinaseProfiler service)
In short: as §1

IRR = molecular target: T31, IRR (Homo sapiens, UniProt P14616)
T31 construct: purchased Millipore, Inc. (KinaseProfiler service)
T31 sequence (P14616 27-1297): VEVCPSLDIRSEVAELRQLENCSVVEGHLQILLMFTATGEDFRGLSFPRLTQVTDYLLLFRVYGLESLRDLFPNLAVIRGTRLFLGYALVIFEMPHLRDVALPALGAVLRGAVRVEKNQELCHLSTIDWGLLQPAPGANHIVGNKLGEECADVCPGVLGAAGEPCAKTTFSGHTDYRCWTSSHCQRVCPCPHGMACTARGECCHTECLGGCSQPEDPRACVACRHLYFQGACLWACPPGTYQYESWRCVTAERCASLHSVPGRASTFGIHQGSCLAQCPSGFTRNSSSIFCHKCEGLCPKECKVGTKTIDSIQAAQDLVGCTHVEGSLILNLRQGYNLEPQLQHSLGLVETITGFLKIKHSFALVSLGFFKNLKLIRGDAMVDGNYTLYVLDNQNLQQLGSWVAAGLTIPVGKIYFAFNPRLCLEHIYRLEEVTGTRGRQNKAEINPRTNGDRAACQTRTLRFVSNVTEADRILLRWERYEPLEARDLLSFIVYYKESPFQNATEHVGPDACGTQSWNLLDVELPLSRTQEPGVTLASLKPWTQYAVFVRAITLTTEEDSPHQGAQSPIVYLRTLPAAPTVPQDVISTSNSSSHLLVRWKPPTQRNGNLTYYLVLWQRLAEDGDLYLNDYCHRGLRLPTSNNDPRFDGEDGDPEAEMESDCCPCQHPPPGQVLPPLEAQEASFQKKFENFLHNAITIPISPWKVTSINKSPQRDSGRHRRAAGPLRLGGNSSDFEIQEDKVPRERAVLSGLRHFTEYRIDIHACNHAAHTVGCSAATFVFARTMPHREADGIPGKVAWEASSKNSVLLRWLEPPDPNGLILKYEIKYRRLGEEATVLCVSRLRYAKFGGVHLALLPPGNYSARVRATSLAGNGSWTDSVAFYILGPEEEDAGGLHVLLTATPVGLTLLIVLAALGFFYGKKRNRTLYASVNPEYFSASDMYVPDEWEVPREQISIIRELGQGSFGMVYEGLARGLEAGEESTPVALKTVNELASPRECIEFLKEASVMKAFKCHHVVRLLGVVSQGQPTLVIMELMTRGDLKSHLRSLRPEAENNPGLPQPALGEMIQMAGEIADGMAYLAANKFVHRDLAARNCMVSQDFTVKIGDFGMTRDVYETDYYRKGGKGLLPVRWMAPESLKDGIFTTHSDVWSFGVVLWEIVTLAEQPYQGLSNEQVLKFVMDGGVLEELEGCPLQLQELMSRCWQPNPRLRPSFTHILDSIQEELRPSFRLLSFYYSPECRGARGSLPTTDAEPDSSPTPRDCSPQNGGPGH
In short: as §1

EphA2 = molecular target: T32, EphA2 (Homo sapiens, UniProt P29317)
T32 construct: purchased Millipore, Inc. (KinaseProfiler service)
In short: as §1

ZAP-70 = molecular target: T33, ZAP-70 (Homo sapiens, UniProt P43403)
T33 construct: purchased Millipore, Inc. (KinaseProfiler service)
In short: as §1

PAK4 = molecular target: T34, PAK4 (Homo sapiens, UniProt O96013)
T34 construct: purchased Millipore, Inc. (KinaseProfiler service)
In short: as §1

Hck = molecular target: T35, Hck (Homo sapiens, UniProt P08631)
T35 construct: purchased Millipore, Inc. (KinaseProfiler service)
In short: as §1

GSK3beta = molecular target: T36, GSK3beta (Homo sapiens, UniProt P49841)
T36 construct: purchased Millipore, Inc. (KinaseProfiler service)
T36 sequence (P49841 whole entry): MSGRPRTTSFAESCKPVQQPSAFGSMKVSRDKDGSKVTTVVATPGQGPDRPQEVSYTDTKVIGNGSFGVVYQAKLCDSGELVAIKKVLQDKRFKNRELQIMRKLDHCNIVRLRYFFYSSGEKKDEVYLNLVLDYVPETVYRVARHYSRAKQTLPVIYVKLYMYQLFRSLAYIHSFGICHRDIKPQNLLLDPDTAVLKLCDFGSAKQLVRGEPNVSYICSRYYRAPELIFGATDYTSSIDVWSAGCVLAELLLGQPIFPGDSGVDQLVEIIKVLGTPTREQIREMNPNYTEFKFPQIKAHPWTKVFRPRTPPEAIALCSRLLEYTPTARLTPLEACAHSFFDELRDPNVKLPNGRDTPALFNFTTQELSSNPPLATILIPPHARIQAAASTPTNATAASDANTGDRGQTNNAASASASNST
In short: as §1

PKCepsilon = molecular target: T37, PKCepsilon (Homo sapiens, UniProt Q02156)
T37 construct: purchased Millipore, Inc. (KinaseProfiler service)
In short: as §1

MARK2 = molecular target: T38, MARK2 (Homo sapiens, UniProt Q7KZI7)
T38 construct: purchased Millipore, Inc. (KinaseProfiler service)
In short: as §1

Rsk2 = molecular target: T39, Rsk2 (Homo sapiens, UniProt P51812)
T39 construct: purchased Millipore, Inc. (KinaseProfiler service)
In short: as §1

Syk = molecular target: T40, Syk (Homo sapiens, UniProt P43405)
T40 construct: purchased Millipore, Inc. (KinaseProfiler service)
In short: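 ATP near Km for each enzyme; compound 10 μM; n = 2. Data given as POC (average of replicates).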

PKCalpha = molecular target: T41, PKCalpha (Homo sapiens, UniProt P17252)
T41 construct: purchased Millipore, Inc. (KinaseProfiler service)
In short: as §1

Avg POC (TEC Activated): 131 POC
Avg POC (Rsk4): 98 POC
Avg POC (EphB1): 136 POC
Avg POC (p38beta): 106.5 POC
Avg POC (Mer): 105.5 POC
Avg POC (SRC): 110.5 POC
Avg POC (Rsk3): 99 POC
Avg POC (WNK2): 115 POC
Avg POC (BrSK2): 116.5 POC
Avg POC (SGK2): 144.5 POC
Avg POC (PKCtheta): 130 POC
Avg POC (CAMK2g): 103 POC
Avg POC (BTK): 123 POC
Avg POC (MAPKAP-K2): 143.5 POC
Avg POC (PKCzeta): 108 POC
Avg POC (EphA3): 120 POC
Avg POC (HIPK1): 108 POC
Avg POC (PDK1): 115 POC
Avg POC (CDK5/p25): 104.5 POC
Avg POC (Plk2): 99 POC
Avg POC (CK1gamma2): 110 POC
Avg POC (NLK): 125.5 POC
Avg POC (Fes): 121.5 POC
Avg POC (Flt4): 107 POC
Avg POC (RIPK2): 98 POC
Avg POC (MSK1): 151 POC
Avg POC (EphB2): 119 POC
Avg POC (MARK1): 107 POC
Avg POC (p38delta): 104.5 POC
Avg POC (NEK7): 119.5 POC
Avg POC (IRR): 109 POC
Avg POC (EphA2): 127 POC
Avg POC (ZAP-70): 133 POC
Avg POC (PAK4): 103.5 POC
Avg POC (Hck): 134.5 POC
Avg POC (GSK3beta): 127.5 POC
Avg POC (PKCepsilon): 102 POC
Avg POC (MARK2): 100.5 POC
Avg POC (Rsk2): 131 POC
Avg POC (Syk): 127.5 POC
Avg POC (PKCalpha): 102.5 POC
SMILES: Cc1c(-c2cnn(C)c2)nn(-c2ccccc2)c1NC(=O)Nc1sc(C(F)(F)F)nc1-c1ccccc1 [Example 2, 1-(1′,4-dimethyl-1-phenyl-1H,1′H-[3,4′-bipyrazol]-5-yl)-3-(4-phenyl-2-(trifluoromethyl)thiazol-5-yl)urea]
